Experimental data taken from article PMC10793205, “Differential transmetallation of complexes of the anti-cancer thiosemicarbazone, Dp4e4mT: effects on anti-proliferative efficacy, redox activity, oxy-myoglobin and oxy-hemoglobin oxidation” (Chemical Science, 2023).
Entries after “also recorded” stand apart in the source; their conditions may differ.

What was measured:
[1] = Transmetallation kinetics with FeCl3 in DMSO (time-resolved UV-vis); format: physicochemical; conditions: for Observed pseudo first order rate constant kobs, FeCl3: 10-fold excess of FeCl3 in DMSO, 25 °C; for t½, transmetallation with FeCl3: FeCl3 in DMSO
Method: The capacity of the Fe(III), Ni(II), Co(III), Zn(II), Ga(III), and Pd(II) complexes of Dp4e4mT to transmetallate with Cu(II) and/or Fe(III) to result in redox active Cu(II) and Fe(III) complexes could be critical in understanding their anti-proliferative efficacy, redox activity, and ability to oxidize oxy-Mb and oxy-Hb. To examine this, LC-MS spectrometry was performed in DMSO after the addition of 1 equivalent of FeCl3 or Cu(OAc)2 and the solutions then incubated for 24 h/20 °C due to slow reaction kinetics. This solution was then diluted 1 : 1 in methanol and LC-MS performed using a mobile phase consisting of 90% MeOH, 9.9% water, and 0.1% formic acid (Fig. S2–S9 ^†). These investigations were supported by EPR studies in DMSO after the addition of 1 equivalent of FeCl3 or Cu(OAc)2 incubated under the same conditions (Fig. 3A–G). As a third method to investigate transmetallation, kinetic studies using time-resolved UV-vis spectroscopy were performed under pseudo-first order conditions with a 10-fold excess of FeCl3 or Cu(OAc)2 in DMSO (Fig. S11–S16 ^†). The pseudo-first order rate constants were calculated from the time-dependent UV-vis spectroscopy data (at all wavelengths) with Reactlab Kinetics[49] and collected in Table S2. ^† […]
Time-dependent UV-Vis absorption spectra were measured on an Agilent 8453 diode array UV−Vis spectrophotometer, equipped with a thermostatted (± 0.1 °C) multicell transport cooled by a Huber Ministat 230 recirculating cooling bath. Spectral analysis was carried out with Reactlab Kinetics. 10 […]
Table S2. Observed pseudo first order rate constants (k obs, s−1) for reactions of each Dp4e4mT complex with a 10-fold excess of Cu(OAc) 2 or FeCl 3 in DMSO or water (pH 7.4 or 5.0) at 25 °C. […]
[Co(Dp4e4mT)2]+ No reaction No reaction No reaction No reaction […]
a Reaction could not be deciphered by UV-Vis spectroscopy; bchlorido ligand hydrolysis

SK-N-MC cells = test: MTT cellular proliferation assay, SK-N-MC neuroepithelioma cells; format: cell-based, human; conditions: for Therapeutic index SK-N-MC: IC50 of MRC-5 cells/IC50 of SK-N-MC cells, 72 h/37 °C; for IC50: SK-N-MC, 37 °C, MTT, mean ± SD (3 experiments)
Method: The anti-proliferative activity of Dp4e4mT relative to its complexes with Fe(III), Co(III), Ni(II), Cu(II), Zn(II), Ga(III), and Pd(II) was examined over incubation periods of 24-, 48-, and 72 h/37 °C (Table 2). These studies were performed using human SK-N-MC neuroepithelioma and AsPC-1 pancreatic adenocarcinoma cells that we have previously examined to assay other ligands.[15,28,43] […]
All cell lines were procured from the American Type Culture Collection (ATCC; Manassas, VA). The SK-N-MC neuroepithelioma cell line and the mortal MRC-5 fibroblasts were cultured in minimum essential medium (Sigma-Aldrich), while the AsPC-1 cell line was cultured in Roswell Park Memorial Institute 1640 medium (Thermo Fisher Scientific, MA, USA). Both media were supplemented with 10% fetal calf serum, non-essential amino acids (1 mM), sodium pyruvate (1 mM), L-glutamine (2 mM), penicillin (100 U/mL), streptomycin (100 U/mL), and Fungizone (0.5 µg/mL). Cells were maintained at 37 °C in an incubator under a humidified atmosphere with 5% CO 2, following established protocols. 11 Cellular Proliferation Assay
Cellular proliferation was evaluated through the established 3-(4,5-dimethylthiazol-2-yl)-2,5-diphenyltetrazolium bromide (MTT) proliferation assay, validated by viable cell counts.12 […]
Ligands and complexes were dissolved in DMSO to make a stock solution of 10 mM, subsequently diluted in culture media. For cell culture experiments, the DMSO's maximum concentration remained below 0.5% (v/v), with no discernible impact on proliferation.12 MTT […]
Trypan blue staining.12 Analysis of the data was executed employing MARS Data Analysis Software (BMG LabTech; version 3.30). The concentration of agents necessary to inhibit cellular proliferation by 50% (IC 50) was then calculated. […]

oxy-Hb = oxy-Hb (Homo sapiens, UniProt P68871+P69905); test: Oxidation of purified oxy-Hb to met-Hb (UV-vis); format: biochemical; conditions: 10 μM agent, oxy-Hb 40 μM, 1–3 h/20 °C
oxy-Hb, sequence (P69905 2-142 limits assumed): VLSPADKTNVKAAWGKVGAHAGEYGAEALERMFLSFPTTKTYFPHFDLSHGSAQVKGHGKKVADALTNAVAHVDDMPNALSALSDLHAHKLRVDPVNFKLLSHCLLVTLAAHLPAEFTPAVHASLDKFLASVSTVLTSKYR
oxy-Hb, sequence (P68871 2-147 limits assumed): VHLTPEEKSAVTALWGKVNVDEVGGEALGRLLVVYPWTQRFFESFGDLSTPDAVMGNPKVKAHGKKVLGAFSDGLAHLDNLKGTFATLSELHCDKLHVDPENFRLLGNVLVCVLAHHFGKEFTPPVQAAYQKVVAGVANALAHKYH
Description: As such, it was important to examine the effect of the Dp4e4mT complexes on oxy-Hb and oxy-Mb oxidation (Fig. 6 and 7). Comparisons were made to three controls, namely DFO, Dp44mT, and DpC, as well as their Fe(III) complexes. […] In contrast, the Fe(III) complexes of Dp44mT and DpC were positive controls, as they induce oxidation of oxy-Mb.[28,39,42]
Fig. 7 (A and B) Investigation of the effects of Dp4e4mT and its Fe(III), Co(III), Ni(II), Cu(II), Zn(II), Ga(III), and Pd(II) complexes versus DFO, Dp44mT, DpC and their Fe(III) complexes (10 μM) on met-Hb generation (% zero time) after an incubation of 1–3 h/20 °C with purified oxy-Hb (40 μM). (C) Investigation of the effects of Dp4e4mT and its Fe(III), Co(III), Ni(II), Cu(II), Zn(II), Ga(III), or Pd(II) complexes relative to the positive controls DFO, Dp44mT, DpC, and their Fe(III) complexes (10 μM) on oxy-Hb oxidation in intact human erythrocytes after a 3 h/37 °C incubation. Results are mean ± SD (3 experiments).
Spectroscopic Examination of Met-Mb and Met-Hb Formation from Oxy-Mb and Oxy- […]
Oxy-Mb and oxy-Hb solutions were prepared following established protocols.8, 17 In brief, solutions of reduced Mb and Hb in PBS (pH 7.2) were prepared by adding 1.2 mL of Na2S2O4 (12 mM) to 38 mL of met-Mb and met-Hb solution (40 μM). 17 Subsequently, oxy-Mb and oxy-Hb were generated by gently passing 150 mL of oxygen (from an air-filled syringe) through the solution containing reduced Mb and Hb, effectively eliminating any residual Na2S2O4. Following this, the oxy-Mb and oxy-Hb solutions were passed through a PD-10 column prepacked with 8.3 mL of Sephadex G-25 and equilibrated with PBS (pH 7.2). 17 In experiments examining the activity of the agents, all complexes were dissolved in 1,2-propanediol, then diluted to 10 µM in PBS (pH 7.2). The experiments were conducted over incubations of 0 to 3 h with the agents. UV-Vis spectra covering the range of 300 to 700 nm were recorded at a temperature of 20°C using a Shimadzu UV−Vis spectrophotometer (UV-1800; Shimadzu, Kyoto, Japan). Concentrations of met-Mb and met-Hb, as well as reduced-Mb and reduced-Hb, were determined at 409 nm and 435 nm, respectively. Concentrations of oxy-Mb and oxy-Hb were determined at 544 nm and 582 nm, respectively. 17

With `CCN(C)C([S-])=NN=C(c1ccccn1)c1ccccn1.[Cl-].[Cu+2]` [[Cu(Dp4e4mT)Cl]] the “Observed pseudo first order rate constant kobs, FeCl3” value [1] was “No reaction”, the “Therapeutic index SK-N-MC” value (SK-N-MC cells) was 130 and the IC50 (SK-N-MC cells; 24 h) was 492 ± 34 nM. The IC50 (SK-N-MC cells; 48 h) was 31 ± 8 nM, the IC50 (SK-N-MC cells; 72 h) was 3 ± 1 nM and the “oxy-Hb oxidation, purified oxy-Hb (in words)” value (“oxy-Hb oxidation” below) (oxy-Hb) was “lowest ability to oxidize oxy-Mb and oxy-Hb”.

`CN(C(=S)NN=C(c1ccccn1)c1ccccn1)C1CCCCC1` [DpC, di-2-pyridylketone 4-cyclohexyl-4-methyl-3-thiosemicarbazone, reference compound] showed an IC50 (SK-N-MC cells; Homo sapiens, 24 h) of 22300 ± 83 nM, an IC50 (SK-N-MC cells; Homo sapiens, 48 h) of 88 ± 7 nM and an IC50 (SK-N-MC cells; Homo sapiens, 72 h) of 28 ± 9 nM. For the same compound, the “Therapeutic index SK-N-MC” value (SK-N-MC cells) was 149.

With `CN(C)C(=S)NN=C(c1ccccn1)c1ccccn1` [Dp44mT, di-2-pyridylketone 4,4-dimethyl-3-thiosemicarbazone, reference compound] the IC50 (SK-N-MC cells; Homo sapiens, 24 h) was > 25000 nM, the IC50 (SK-N-MC cells; Homo sapiens, 48 h) was 43 ± 6 nM and the IC50 (SK-N-MC cells; Homo sapiens, 72 h) was 6 ± 1 nM. The “Therapeutic index SK-N-MC” value (SK-N-MC cells) was 152.

With `CCN(C)C([S-])=NN=C(c1ccccn1)c1ccccn1.CCN(C)C([S-])=NN=C(c1ccccn1)c1ccccn1.[Ga+3]` [[Ga(Dp4e4mT)2]^+] the “t½, transmetallation with FeCl3” value [1] was 3 to 4 h, the “Therapeutic index SK-N-MC” value (SK-N-MC cells) was 192 and the IC50 (SK-N-MC cells; 24 h) was 16220 ± 7 nM. The IC50 (SK-N-MC cells; 24 h, listed as Dp4e4mT Ga(III) complex) was 16200 to 19400 nM, the IC50 (SK-N-MC cells; 48 h) was 43 ± 6 nM and the IC50 (SK-N-MC cells; 72 h) was 4 ± 1 nM. For the same compound, the “oxy-Hb oxidation” value (oxy-Hb) was “significantly increased oxy-Mb and oxy-Hb oxidation”.

In the case of `CCN(C)C([S-])=NN=C(c1ccccn1)c1ccccn1.CCN(C)C([S-])=NN=C(c1ccccn1)c1ccccn1.[Ni+2]` [[Ni(Dp4e4mT)2]], the “Observed pseudo first order rate constant kobs, FeCl3” value [1] is reported as “No reaction; also recorded: unreactive”, the “extent of reaction with Fe(III)” value ([1]; DMSO, after 3 days) is reported as ~20% and the “Therapeutic index SK-N-MC” value (SK-N-MC cells) is reported as 250. For the same compound, the IC50 (SK-N-MC cells; 24 h) was > 25000 nM, the IC50 (SK-N-MC cells; 48 h) was 75 ± 25 nM and the IC50 (SK-N-MC cells; 72 h) was 18 ± 6 nM. The “oxy-Hb oxidation” value (oxy-Hb) was “minimal impact” and the “oxy-Hb oxidation” value (oxy-Hb; listed as Dp4e4mT Ni(II) complex) was “low levels of oxy-Hb oxidation”.

For `CCN(C)C(=S)NN=C(c1ccccn1)c1ccccn1` [Dp4e4mT, di-2-pyridylketone-4-ethyl-4-methyl-3-thiosemicarbazone], the IC50 (SK-N-MC cells; Homo sapiens, 24 h) was > 25000 nM, the IC50 (SK-N-MC cells; Homo sapiens, 48 h) was 43 ± 6 nM and the IC50 (SK-N-MC cells; Homo sapiens, 72 h) was 6 ± 1 nM. For the same compound, the “Therapeutic index SK-N-MC” value (SK-N-MC cells) was 301.

For `CCN(C)C([S-])=NN=C(c1ccccn1)c1ccccn1.CCN(C)C([S-])=NN=C(c1ccccn1)c1ccccn1.[Co+3]` [[Co(Dp4e4mT)2]^+], the “Observed pseudo first order rate constant kobs, FeCl3” value [1] was “No reaction”, the “Therapeutic index SK-N-MC” value (SK-N-MC cells) was 4 and the IC50 (SK-N-MC cells; 24 h) was 5498 ± 4 nM. The IC50 (SK-N-MC cells; 48 h) was 1470 ± 61 nM, the IC50 (SK-N-MC cells; 72 h) was 818 ± 51 nM and the “oxy-Hb oxidation” value (oxy-Hb) was “minimal impact”. For the same compound, the “oxy-Hb oxidation” value (oxy-Hb; listed as Dp4e4mT Co(III) complex) was “low levels of oxy-Hb oxidation”.

In the case of `CCN(C)C([S-])=NN=C(c1ccccn1)c1ccccn1.[Cl-].[Pd+2]` [[Pd(Dp4e4mT)Cl]], the “Observed pseudo first order rate constant kobs, FeCl3” value [1] is reported as “No reaction”, the “Therapeutic index SK-N-MC” value (SK-N-MC cells) is reported as 3 and the IC50 (SK-N-MC cells; 24 h) is reported as > 25000 nM. For the same compound, the IC50 (SK-N-MC cells; 48 h) was 661 ± 62 nM, the IC50 (SK-N-MC cells; 72 h) was 285 ± 121 nM and the “oxy-Hb oxidation” value (oxy-Hb) was “minimal impact”. The “oxy-Hb oxidation” value (oxy-Hb; listed as Dp4e4mT Pd(II) complex) was “low levels of oxy-Hb oxidation”.

With `CCN(C)C([S-])=NN=C(c1ccccn1)c1ccccn1.CCN(C)C([S-])=NN=C(c1ccccn1)c1ccccn1.[Fe+3]` [[Fe(Dp4e4mT)2]^+] the “Therapeutic index SK-N-MC” value (SK-N-MC cells) was 9, the IC50 (SK-N-MC cells; 24 h) was 2680 ± 71 nM and the IC50 (SK-N-MC cells; 48 h) was 1530 ± 37 nM. It also gave an IC50 (SK-N-MC cells; 72 h) of 214 ± 5 nM.

For `CCN(C)C([S-])=NN=C(c1ccccn1)c1ccccn1.CCN(C)C([S-])=NN=C(c1ccccn1)c1ccccn1.[Zn+2]` [[Zn(Dp4e4mT)2]], the “Observed pseudo first order rate constant kobs, FeCl3” value [1] was 0.00891 s⁻¹, the “t½, transmetallation with FeCl3” value [1] was ~0.017 h and the “Therapeutic index SK-N-MC” value (SK-N-MC cells) was 187. For the same compound, the “oxy-Hb oxidation” value (oxy-Hb) was “significantly increased oxy-Mb and oxy-Hb oxidation”.
